“Also recorded” adds a separate entry of the source.

Data on one compound can be found in patent US7897610B2, “Use of benzo[c]quinolizinium derivatives for the treatment of diseases that are linked to smooth muscle cell constriction” (Centre National de la Recherche Scientifique, priority 2002, dated 2011).

Experiment [1] concerns anionic transport in smooth muscle cells of aorta rings. Briefly: Iodide efflux (125I) on rat aorta rings. Conditions: for iodide discharge speed / increase of discharge speed over basal state: hyperpotassium medium. It is filed as cell-based. Details: key to iodide discharge speed / iodide discharge speed after stimulation: Ln(125I t1/125I t2)/(t1−t2), per min; key to increase of discharge speed over basal state: difference of Ln(125I t1/125I t2)/(t1−t2) values, per min. How it is done:
The iodide efflux technique, perfected by Venglarick et al. (1990), allows measurement of the movement of ions and is described in detail in Derand et al. (2001).
The aorta rings of equivalent size, are incubated in 1 ml of filling solution composed of physiological solution of modified Krebs type or hyperpotassium solution (80 mM KCl) supplemented with 1.5 μl/ml of Na ^125I and 0.1 μl/ml of KI. After incubation for 1 hour 30 minutes at 37° C., 4 successive rinsings of two minutes are carried out in 1 ml of appropriate physiological solution (normal Krebs or hyperpotassium solution). An iodide efflux kinetics of the aorta rings is carried out for 12 min. After each minute, the content of each well is sampled and placed in hemolysis tubes, and radioactivity is counted with a gamma counter (Packard, Cobra II). At the 12th minute, the aorta rings are solubilized in Sodium Dodecyl Sulphate (SDS 0.1%)+NaOH (0.1 M). This stage allows the recovery of the residual radioactivity by cell destruction.
The total radioactivity of the cells is calculated by the addition of the counts per minute (cpm) of each collected fraction and of the cpm of the solubilized fraction (residual radioactivity). The curves are plotted expressing the efflux as a percentage of the cell content accumulated in the medium as a function of time. For example, the value attributed at time tn, corresponds to: 100×(Σ cpm obtained from t0 to tn)/total radioactivity. The instantaneous discharge speed is presented according to the formula Ln(^125It1/^125It2)/(t1−t2), where t1 and t2 are two successive times and ^125It1 and ^125It2 are the effluxes measured at time t1 and t2. In order to evaluate the effect of a substance, the activation ratio r=discharge speed after stimulation/discharge speed before stimulation is determined. The results (average±SEM) are compared using Student's statistical test for a paired value.

The subject of experiment [2] is aorta rings of Cftr-/- mice. In words: Vasorelaxation of aorta rings contracted by 80 mM K+, Cftr-/- mice. The class given is cell-based, mouse. Conditions: pre-contracted aorta. The source says: CFTR is detected at the level of its messenger RNA and at the level of protein in the smooth muscles. As negative control the inventors used musculus skeleti of rat at the level of which neither the messenger nor the protein are present. CFTR is detectable in the smooth muscle by immunoprecipitation and phosphorylation in vitro by the protein kinase A. The pharmacology of CFTR has been studied using iodide efflux in muscle cell freshly dissociated from rat aorta. […] Its inhibition profile is similar to that of epithelial CFTR (sensitivity to glibenclamide and DPC but not to Calixarene). […] Moreover, a greater contraction is observed in the KO animals in response to the constricting agents.
a, graphs showing the vasorelaxation induced by the VIP neuropeptide (Vasoactive Intestinal Polypeptide) of aortas without endothelium of Cftr^+/+ (left) and Cftr^−/− (right) mice. The aorta rings are reversibly contracted by a hyperpotassium solution (solution of 80 mM K^+) then the effect of 300 nM VIP is measured. The absence of endothelium is verified by the addition of acetylcholine (ACh, 10^−5 M).
This effect is absent in Cftr^−/− mice (n=6). Average±SEM*P<0.05, ** P<0.01, *** P<0.001.

In the next experiment the test system is human mammary arteries. In words: Vasorelaxant effect on human mammary arteries. The class given is cell-based. An excerpt:
The pharmacological effects of the compounds of the benzo[c]quinolizinium family, CFTR activators: 6-hydroxy-10-chlorobenzo[c]quinolizinium chloride (reference name: MPB-07) and 5-butyl-6-hydroxy-10-chlorobenzo[c]quinolizinium chloride (reference name: MPB-91), were studied on aorta rings isolated from rats and from human mammary arteries.

A further experiment deals with T1, CFTR (Homo sapiens, UniProt P13569).
T1 construct: In cells expressing the CFTR protein in an endogenous manner
Conditions: epithelial cells; cited from earlier work.

T1 sequence (P13569 whole entry): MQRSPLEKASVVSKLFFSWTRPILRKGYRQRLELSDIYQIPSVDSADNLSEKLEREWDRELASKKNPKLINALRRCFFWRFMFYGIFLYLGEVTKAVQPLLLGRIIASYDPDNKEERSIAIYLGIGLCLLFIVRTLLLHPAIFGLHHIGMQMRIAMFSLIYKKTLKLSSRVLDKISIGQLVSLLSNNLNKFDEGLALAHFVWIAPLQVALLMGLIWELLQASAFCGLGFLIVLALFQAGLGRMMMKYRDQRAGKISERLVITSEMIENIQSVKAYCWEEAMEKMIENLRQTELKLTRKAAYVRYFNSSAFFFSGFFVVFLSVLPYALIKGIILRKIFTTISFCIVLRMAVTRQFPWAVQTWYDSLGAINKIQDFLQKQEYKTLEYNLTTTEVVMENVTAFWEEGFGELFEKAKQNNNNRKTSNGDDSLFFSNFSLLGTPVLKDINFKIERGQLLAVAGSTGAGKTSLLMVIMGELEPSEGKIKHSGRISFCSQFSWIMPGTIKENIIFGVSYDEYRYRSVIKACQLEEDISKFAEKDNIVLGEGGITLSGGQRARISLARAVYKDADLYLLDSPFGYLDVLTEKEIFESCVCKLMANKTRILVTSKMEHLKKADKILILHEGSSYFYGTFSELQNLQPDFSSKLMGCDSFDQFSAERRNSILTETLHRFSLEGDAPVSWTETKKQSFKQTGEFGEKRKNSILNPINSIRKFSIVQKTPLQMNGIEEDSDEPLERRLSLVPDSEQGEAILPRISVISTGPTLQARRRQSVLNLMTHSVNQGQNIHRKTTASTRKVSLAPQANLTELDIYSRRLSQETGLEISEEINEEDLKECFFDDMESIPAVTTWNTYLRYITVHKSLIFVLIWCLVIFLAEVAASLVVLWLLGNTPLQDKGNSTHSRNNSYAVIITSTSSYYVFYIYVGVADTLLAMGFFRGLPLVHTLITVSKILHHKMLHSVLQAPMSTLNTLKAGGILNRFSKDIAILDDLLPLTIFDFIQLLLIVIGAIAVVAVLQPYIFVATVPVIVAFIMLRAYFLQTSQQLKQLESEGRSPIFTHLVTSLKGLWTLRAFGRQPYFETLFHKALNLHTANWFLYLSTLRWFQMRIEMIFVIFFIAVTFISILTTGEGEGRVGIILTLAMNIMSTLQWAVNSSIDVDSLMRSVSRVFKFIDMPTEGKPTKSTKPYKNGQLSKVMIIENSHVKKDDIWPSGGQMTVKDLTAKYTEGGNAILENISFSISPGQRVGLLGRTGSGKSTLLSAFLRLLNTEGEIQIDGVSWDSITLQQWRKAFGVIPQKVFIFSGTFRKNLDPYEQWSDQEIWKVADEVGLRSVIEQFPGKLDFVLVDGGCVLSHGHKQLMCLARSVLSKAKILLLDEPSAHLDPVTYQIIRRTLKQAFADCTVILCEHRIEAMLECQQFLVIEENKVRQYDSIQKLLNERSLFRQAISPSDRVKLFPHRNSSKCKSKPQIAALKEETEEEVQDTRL

In the case of `Oc1cc2cccc[n+]2c2c(Cl)cccc12.[Cl-]` [MPB-07, 6-hydroxy-10-chlorobenzo[c]quinolizinium chloride], the iodide discharge speed stood at 0.103±0.017 in experiment [1] (L-NAME 10^-4 M, 250 μM, 1 minute after addition); 0.110±0.015 in experiment [1] (L-NAME 10^-4 M, 250 μM, 2 minutes after addition); 0.119±0.011 in experiment [1] (L-NAME 10^-4 M, 250 μM, 3 minutes after addition); 0.076±0.008 in experiment [1] (without endothelium, 250 μM, 1 minute after addition); 0.099±0.013 in experiment [1] (without endothelium, 250 μM, 2 minutes after addition). For the same compound, the “increase of discharge speed over basal state” value in experiment [1] (L-NAME, 1 minute) is recorded as 0.044; in experiment [1] (L-NAME, 2 minutes) it was 0.051; in experiment [1] (L-NAME, 3 minutes), 0.060; in experiment [1] (without endothelium, 1 minute), 0.023; in experiment [1] (without endothelium, 2 minutes) it was 0.046. In experiment [1] (smooth muscle cells of aorta rings), the “activation of anionic transport / discharge speed” value is on record as “activates anionic transport”. Besides, the “iodide discharge speed after stimulation” value in experiment [1] (without endothelium, normal physiological medium, 250 μM, n=3) is listed as 0.076±0.016. Moreover, the “vasorelaxation in Cftr-/- mice” value in experiment [2] was “very considerably reduced; also recorded: absent”. The vasorelaxant effect result in the experiment with human mammary arteries is “reversible and slow dose-dependent vasorelaxant effect”. For the same compound, the “activity on the CFTR channel” value on CFTR is reported as “activators of this ion channel”.
